The source of these data is patent US10335374B2, “Tablet composition for anti-tuberculosis antibiotics” (priority 2014, dated 2019).

pIC50: −log10 of the molar value. Converted amounts (≈) assume the structure as drawn. Where two headings read alike, the source gives them in different places.

For data set [1], the system named is Mycobacterium Tuberculosis Infected Macrophages. To be noted: intracellular, published study; cited from earlier work.
The test system of the next data set is M. tuberculosis. The data set can be described thus: IC50, IC90 and MIC of amikacin one and two component complexes. The data set is classed as cell-based. To be noted: Mycobacterium tuberculosis.
Another data set relates to H37Rv strain. The data set can be described thus: MIC of amikacin complexes, H37Rv strain. It counts as cell-based, M. tuberculosis. To be noted: Mycobacterium tuberculosis, second set.
The conditions of data set [2]: in vivo; cited from earlier work.
Data set [3] deals with M. tuberculosis H37Rv. In words: MIC, IC50 and IC90 under aerobic conditions (growth after five days). The data set is classed as cell-based, Mycobacterium tuberculosis.
In data set [4] the test system is M. tuberculosis H37Rv. The data set can be described thus: Minimum bactericidal concentration (kill kinetics, 21 days). It counts as cell-based. To be noted: for MBC: Mycobacterium tuberculosis, H37RV.
The conditions of data set [5]: rats (oral); cited from earlier work.
The next data set deals with active TB. In words: MIC of capreomycin one and two component systems against active TB. The data set is classed as cell-based, Mycobacterium tuberculosis. On the procedure: The first antibiotic complex investigated with one and two component systems consisted of the second-line TB drug capreomycin which was bound to the copper(II) cation and the aggregate forming water soluble unbranched polymer PEG-3350. […] MIC values are defined as the lowest concentration of an antimicrobial (i.e. antifungal, antibiotic or bacteriostatic) drug that will inhibit the visible growth of a microorganism after incubation and is a common unit used to describe the level of efficacy of an antibiotic against a bacterium.

Data set [6] deals with Vero African green monkey kidney cell line. In words: Cytotoxicity towards eukaryotic cells. The data set is classed as cell-based. To be noted: Chlorocebus sabaeus, 48 h, two days.
Data set [7] has as its system Murine J774 macrophages infected with a luminescent strain of H37Rv. The data set is classed as cell-based, M. tuberculosis. The following applies: intracellular.
The conditions of data set [8]: clinical trials, compared to placebo groups; cited from earlier work.
Setting [9] is: Mycobacterium tuberculosis, H37RV, aerobic conditions, rifampicin complexes, second set.
Setting [10] is: Mycobacterium tuberculosis, H37RV, aerobic conditions, glucose series.
Where [11] appears, read: Mycobacterium tuberculosis, H37RV, aerobic conditions, isoniazid-sucrose series, equal molar ratios.

Regarding `COc1c(N2CC[C@@H](C(C)(C)N)C2)c(F)cc2c(=O)c3c(=O)[nH]sc3n(C3CC3)c12` [ACH-702], in data set [1], the “drop of activity, log(kill) units” value is ~1.3 log(kill) units.
By pIC50 is commonly meant −log10 of the IC50, conventionally taken in molar units. The term IC90 denotes the concentration at which the effect reaches the 90% level. As a reminder, the MIC is the least concentration at which growth counts as inhibited. Turning to `NCC[C@H](O)C(=O)N[C@@H]1C[C@H](N)[C@@H](O[C@H]2O[C@H](CN)[C@@H](O)[C@H](O)[C@H]2O)[C@H](O)[C@H]1O[C@H]1O[C@H](CO)[C@@H](O)[C@H](N)[C@H]1O` [amikacin], in the data set on M. tuberculosis, the pIC50 was 6.67, the IC90 came to 0.328 µM and the MIC was determined as 0.39 µM. In addition, the MIC in the data set on H37Rv strain came to 0.256 µM.
For orientation: LD50 means the dose at which mortality reaches 50%. As for `COc1cc(C=O)ccc1O` [vanillin], the LD50 in data set [2] is on record as 1,580 mg/kg.
The term MBC denotes the lowest tested concentration that kills the bacteria rather than only halting them. For the compound `CO[C@H]1/C=C/O[C@@]2(C)Oc3c(C)c(O)c4c(O)c(c(/C=N/N5CCN(C)CC5)c(O)c4c3C2=O)NC(=O)/C(C)=C\C=C\[C@H](C)[C@H](O)[C@@H](C)[C@@H](O)[C@@H](C)[C@H](OC(C)=O)[C@@H]1C` [rifampicin], the MIC in the data set on M. tuberculosis H37Rv [3] (Mycobacterium tuberculosis, H37RV, H37Rv strain, rifampicin complexes, first set, read-out: MIC) amounted to 0.006 µM (≈ 0.00494 µg/mL). In the data set on M. tuberculosis H37Rv [3] (setting [9]), this compound gave a pIC50 of 8.52 and an IC90 of 0.003 µM. Moreover, the MIC in the data set with M. tuberculosis H37Rv [3] (Mycobacterium tuberculosis, H37RV, aerobic conditions, rifampicin complexes, second set, read-out: MIC) was determined as 0.004 µM (≈ 0.00329 µg/mL). In the data set with M. tuberculosis H37Rv [4] (rifampicin complexes), the MBC turned out to be 0.06 µM (≈ 0.0494 µg/mL) and the MBC/MIC turned out to be 15.
For the compound copper gluconate, the LD50 in data set [5] was 1710 mg/kg.
Take `[Cl-].[Na+]` [sodium chloride]: in [2], the LD50 is 3,000 mg/kg.
The compound copper (II) chloride dihydrate returned an MIC with M. tuberculosis H37Rv [3] (H37Rv strain, rifampicin complexes, first set) of 105.7 µM.
For capreomycin, the MIC in the data set on active TB is 3.13 µM.
For the compound `[Cl][Cu][Cl]` [copper(II) chloride], the MIC with active TB stood at 0.39 µM. In addition, the LD50 in data set [5] is given as 140 mg/kg.
For the compound `CCO` [ethyl alcohol], the LD50 in [2] is reported as 14,000 mg/kg.
Regarding `Cn1nnc(-c2ccc(-c3ccc(N4C[C@H](CO)OC4=O)cc3F)cn2)n1` [Tedizolid], the “drop of activity, log(kill) units” value in [1] is given as “approximately 1.4 log(kill) units”.
For the compound `NNC(=O)c1ccncc1` [Isoniazid (INH), isoniazid], the pIC50 is 6.33 with M. tuberculosis H37Rv [3] (setting [10]), 6.20 in the data set on M. tuberculosis H37Rv [3] (setting [11]) and less than 4.00 in data set [6]. The values for the concentration for an effect of 90% (IC90) in the data set with M. tuberculosis H37Rv [3] (setting [10]) and with M. tuberculosis H37Rv [3] (setting [11]) were 0.62 µM and 1 µM, respectively. Moreover, the MIC turned out to be 0.64 µM (≈ 0.0878 µg/mL) in the data set with M. tuberculosis H37Rv [3] (Mycobacterium tuberculosis, H37RV, aerobic conditions, glucose series, read-out: MIC) and 0.97 µM in the data set on M. tuberculosis H37Rv [3] (Mycobacterium tuberculosis, H37RV, aerobic conditions, isoniazid-sucrose series, equal molar ratios, read-out: MIC). The same compound registered an MBC in the data set on M. tuberculosis H37Rv [4] (isoniazid-sucrose series) of 0.3 µM (≈ 0.0411 µg/mL). The “average log(kill) value” in [7] (average of table eight) was determined as 2.5. Further, the “Log Kill” value in [7] (concentration 1.2 μM) and in data set [7] (concentration 12 μM) was 2.5 each time.
For `COc1nc2ccc(Br)cc2cc1[C@@H](c1ccccc1)[C@@](O)(CCN(C)C)c1cccc2ccccc12` [bedaquiline, Bedaquiline], the “deaths in recipient groups” value in data set [8] is 11.4%.
On to vitamin A, for which the LD50 in data set [2] is 2,000 mg/kg.
